Reference: ChEMBL document CHEMBL1201862, “PubChem BioAssay data set” (2004)
Active and inactive are the calls of the source.

Experiments:
Beta-lactamase [1] = target: Beta-lactamase (Pseudomonas aeruginosa, UniProt Q79MP6);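 note: biochemical dose-response test of metallo-beta-lactamase enzyme inhibition, read out by epi-absorbance; purified recombinant IMP-1 metallo-beta-lactamase with nitrocefin as substrate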
Beta-lactamase [2] = target: Beta-lactamase (Salmonella choleraesuis (strain SC-B67), UniProt Q5J463)
ORF 73 = ORF 73 (Human herpesvirus 8, UniProt O40947); assay: inhibitors of C-LANA binding to LBS DNA, dose response, biochemical, fluorescence polarization, cherry-picked samples (AID 504725); design: species or system Human gammaherpesvirus 8;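 note: fluorescence polarization of a labeled DNA duplex reporting LANA DNA binding; potency is for inhibitors that block LANA binding to the DNA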
Keap1/Nrf2 = Keap1/Nrf2 (Homo sapiens, UniProt Q14145); assay: Keap1-Nrf2 protein-protein interaction inhibitors, dose response, biochemical, fluorescence polarization, cherry-picked samples (AID 588683)
[3] = NIH-3T3 fibroblast cytotoxicity, dose response, cytotoxicity control, cell-based, fluorescence, Alamar Blue, secondary assay (AID 2327); type: functional;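 note: NIH-3T3 mouse fibroblasts cultured with fluconazole at 8 µg/mL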
[4] = C. albicans growth with fluconazole, confirmation, fluorescence, retest (AID 2467); type: functional, cell-based
[5] = microbe, parasite or virus in culture; type: functional; details: Mycobacterium tuberculosis
Bcl-2-related protein A1 = target: T1, Bcl-2-related protein A1 (Mus musculus, UniProt Q07440); type: functional;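 note: confirmatory dose–response counterscreen on Bfl-1, used to check hits from a UBC13 polyubiquitin inhibitor campaign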
T1 sequence (Q07440 whole entry): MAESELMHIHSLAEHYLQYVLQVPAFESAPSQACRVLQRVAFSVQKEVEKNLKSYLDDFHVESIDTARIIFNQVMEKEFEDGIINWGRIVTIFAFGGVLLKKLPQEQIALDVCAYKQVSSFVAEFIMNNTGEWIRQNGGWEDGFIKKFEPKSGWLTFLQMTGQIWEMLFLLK

Jurkat = assay: antigen receptor-induced NF-kB inhibitors, dose response, Jurkat, luciferase reporter, luminescence, B- and T-cell (AID 489004); type: functional, cell-based; details: Homo sapiens;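 note: NF-kB luciferase reporter Jurkat cells stimulated with PMA plus ionomycin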
[6] = target: T2, Ubiquitin-conjugating enzyme E2 N (Homo sapiens, UniProt P61088); type: functional
T2 sequence (P61088 whole entry): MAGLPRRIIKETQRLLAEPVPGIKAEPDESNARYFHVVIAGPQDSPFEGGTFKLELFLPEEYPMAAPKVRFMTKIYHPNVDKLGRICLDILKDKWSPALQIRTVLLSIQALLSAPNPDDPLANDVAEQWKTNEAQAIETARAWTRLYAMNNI

[7] = cytotoxicity in HEK-293T NF-kB-Luc cells, dose response, cytotoxicity control for B/T-cell NF-kB inhibitor project, cell-based, uHTS hits (AID 489019); type: functional;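 note: IC50 reflects cytotoxicity as loss of cell viability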
[8] = target: T2, Ubiquitin-conjugating enzyme E2 N; type: functional; remark: listed apart in the source
INS1 = assay: beta cell apoptosis inhibitors, cytokine rescue, dose response, luminescence, retest (AID 449756); type: functional, cell-based; details: Rattus norvegicus;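 note: cell death triggered by IL-1 beta plus TNF-alpha plus IFN-gamma mixture; protective hits raise ATP signal compared with cytokine alone wells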
[9] = target: Voltage-gated inwardly rectifying potassium channel KCNH2 (Homo sapiens, UniProt Q12809); details: Potency;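 note: confirmatory quantitative high-throughput screen measuring inhibition of hERG channel activity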
[10] = target: Envelope glycoprotein gp160 (Human immunodeficiency virus 1, UniProt Q6QLK5); assay: inhibitors of HIV fusion peptide binding, primary screen, biochemical, uHTS, fluorescence dequenching (AID 1986)
[11] = target: T3, Short transient receptor potential channel 4 (Mus musculus, UniProt Q9QUQ5); assay: mouse TRPC4 channel inhibitors, dose response, cell-based, HEK293 TRPC4/mu-opioid, Fluo-4 calcium (AID 434942); type: functional;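 note: potency of inhibitors blocking the TRPC4 calcium response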
T3 sequence (Q9QUQ5 whole entry): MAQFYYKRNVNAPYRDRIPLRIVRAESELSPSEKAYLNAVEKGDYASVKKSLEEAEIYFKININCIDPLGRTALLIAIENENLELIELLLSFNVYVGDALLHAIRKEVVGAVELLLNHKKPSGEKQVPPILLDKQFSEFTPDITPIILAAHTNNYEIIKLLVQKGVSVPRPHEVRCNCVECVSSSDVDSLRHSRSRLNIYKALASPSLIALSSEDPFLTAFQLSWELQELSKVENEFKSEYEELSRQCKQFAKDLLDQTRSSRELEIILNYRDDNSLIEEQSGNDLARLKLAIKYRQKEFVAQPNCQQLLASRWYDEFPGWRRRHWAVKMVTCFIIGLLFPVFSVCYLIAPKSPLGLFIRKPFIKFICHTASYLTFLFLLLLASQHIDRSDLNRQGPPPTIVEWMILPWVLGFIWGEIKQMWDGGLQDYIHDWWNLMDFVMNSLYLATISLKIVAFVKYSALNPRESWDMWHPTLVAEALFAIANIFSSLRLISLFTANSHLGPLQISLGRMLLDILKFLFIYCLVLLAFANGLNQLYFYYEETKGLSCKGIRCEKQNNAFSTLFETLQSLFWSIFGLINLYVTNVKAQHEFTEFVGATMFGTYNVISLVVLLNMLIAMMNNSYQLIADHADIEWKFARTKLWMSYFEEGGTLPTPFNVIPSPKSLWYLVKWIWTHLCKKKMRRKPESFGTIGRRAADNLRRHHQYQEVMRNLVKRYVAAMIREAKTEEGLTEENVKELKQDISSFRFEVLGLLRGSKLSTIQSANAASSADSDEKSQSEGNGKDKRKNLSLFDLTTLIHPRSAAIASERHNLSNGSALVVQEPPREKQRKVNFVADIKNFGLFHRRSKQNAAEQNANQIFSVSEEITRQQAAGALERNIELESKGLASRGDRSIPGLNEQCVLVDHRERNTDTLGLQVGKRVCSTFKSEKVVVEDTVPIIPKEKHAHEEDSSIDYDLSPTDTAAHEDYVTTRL

Vero = Vero cell cytotoxicity, cytotoxicity control for flavivirus capping enzyme inhibitors (AID 588742); type: functional; details: Chlorocebus sabaeus
Genome polyprotein = Genome polyprotein (dengue virus type 2, UniProt P29990); assay: Dengue-2 NS5 methyltransferase inhibitors, primary screen, biochemical, confirmation dose response (AID 588689); type: functional
Hexokinase-1 = Hexokinase-1 (Homo sapiens, UniProt P19367); assay: SAR analysis of small molecule inhibitors of hexokinase domain containing I (HKDC1) in the hexokinase 1 selectivity assay. [Related pubchem assays (depositor defined):AID493160, AID493190]; type: functional
Hexokinase HKDC1 = target: T4, Hexokinase HKDC1 (Homo sapiens, UniProt Q2TB90); assay: SAR analysis of small molecule inhibitors of hexokinase domain containing I (HKDC1). [Related pubchem assays (depositor defined):AID493160, AID493190]; type: functional
T4 sequence (Q2TB90 whole entry): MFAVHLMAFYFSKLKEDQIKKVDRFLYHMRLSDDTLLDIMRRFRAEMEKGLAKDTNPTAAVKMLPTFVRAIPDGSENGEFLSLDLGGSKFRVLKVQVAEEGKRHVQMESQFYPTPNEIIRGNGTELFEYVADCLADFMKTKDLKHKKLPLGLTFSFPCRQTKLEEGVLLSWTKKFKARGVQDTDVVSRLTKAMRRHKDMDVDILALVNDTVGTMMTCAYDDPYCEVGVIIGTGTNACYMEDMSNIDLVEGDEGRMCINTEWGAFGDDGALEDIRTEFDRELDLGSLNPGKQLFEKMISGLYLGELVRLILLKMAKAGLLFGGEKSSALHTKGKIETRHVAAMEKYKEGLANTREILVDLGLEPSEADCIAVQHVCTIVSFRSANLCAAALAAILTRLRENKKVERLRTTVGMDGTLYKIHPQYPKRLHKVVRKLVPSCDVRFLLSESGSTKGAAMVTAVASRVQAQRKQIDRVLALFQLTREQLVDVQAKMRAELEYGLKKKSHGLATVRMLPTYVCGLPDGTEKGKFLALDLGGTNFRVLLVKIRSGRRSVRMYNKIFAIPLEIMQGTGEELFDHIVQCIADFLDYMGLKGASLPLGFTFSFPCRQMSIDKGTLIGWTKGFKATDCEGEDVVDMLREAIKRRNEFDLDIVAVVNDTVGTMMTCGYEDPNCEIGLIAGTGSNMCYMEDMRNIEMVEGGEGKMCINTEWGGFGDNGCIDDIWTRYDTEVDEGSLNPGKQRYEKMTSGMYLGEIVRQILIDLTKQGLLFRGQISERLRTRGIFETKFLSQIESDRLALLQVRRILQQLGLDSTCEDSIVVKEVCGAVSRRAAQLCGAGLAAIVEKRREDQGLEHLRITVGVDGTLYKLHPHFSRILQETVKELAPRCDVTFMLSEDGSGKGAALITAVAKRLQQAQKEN

Candida albicans [12] = assay: growth inhibition of resistant C. albicans, dose response, CaCi-8 strain, fluconazole, dry powder, set 4 (AID 488950); type: functional, organism-based
Candida albicans [13] = assay: fluconazole resistance reversal in C. albicans, dose response, CaCi-2 strain, Alamar Blue, dry powder, set 4 (AID 488943); type: functional, organism-based
Candida albicans [14] = assay: growth inhibition of azole-resistant C. albicans, dose response, CaCi-8 strain, Alamar Blue, dry powder, set 3 (AID 488905); type: functional, organism-based
Candida albicans [15] = assay: reversal of fluconazole resistance in C. albicans, dose response, CaCi-2 strain, Alamar Blue, dry powder, set 3 (AID 488907); type: functional, organism-based
[16] = inhibitors of intracellular T. cruzi replication, confirmation, NIH3T3 host cells, beta-gal luminescence (AID 2044); type: functional, cell-based;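 note: intracellular parasites grown in NIH/3T3 mouse fibroblasts as host cells; luminescent beta-galactosidase reporter signal from transgenic T. cruzi replicating inside host cells; inhibitors lower the luminescence signal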
[17] = cytotoxicity toward NIH3T3 fibroblasts, dose response, counter-screen, cell-based, ATP luminescence, mouse fibroblasts (AID 2010); type: functional;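 note: cells exposed to compound for about 90 hours before reading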
CAAX prenyl protease 2 [18] = target: T5, CAAX prenyl protease 2 (Saccharomyces cerevisiae S288c, UniProt Q03530); type: biochemical
T5 sequence (Q03530 whole entry): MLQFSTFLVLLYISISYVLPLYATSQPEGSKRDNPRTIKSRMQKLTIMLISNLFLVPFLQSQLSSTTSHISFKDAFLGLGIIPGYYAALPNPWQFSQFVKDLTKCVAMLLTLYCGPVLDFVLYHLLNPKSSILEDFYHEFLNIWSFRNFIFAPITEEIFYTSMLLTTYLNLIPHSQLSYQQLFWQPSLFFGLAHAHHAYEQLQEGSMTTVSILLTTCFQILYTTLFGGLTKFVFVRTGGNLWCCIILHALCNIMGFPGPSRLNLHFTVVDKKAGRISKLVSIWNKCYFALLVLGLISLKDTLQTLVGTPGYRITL

[19] = target: Delta-type opioid receptor (Homo sapiens, UniProt P41143); assay: Counterscreen for agonists of heterodimerization of the mu 1 (OPRM1) and delta 1 (OPRD1) opioid receptors: Luminescence-based cell-based high throughput dose response assay to identify agonists of OPRD1 homodimerization. [Related pubchem assays (depositor defined):AID504326, AID504355, AID504692, AID504904, AID504905]; type: functional
Mu-type opioid receptor = Mu-type opioid receptor (Homo sapiens, UniProt P35372); assay: Counterscreen for agonists of heterodimerization of the mu 1 (OPRM1) and delta 1 (OPRD1) opioid receptors: Luminescence-based cell-based high throughput dose response assay to identify agonists of OPRM1 homodimerization.; type: functional;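 note: U2OS cells expressing OPRM1 and beta-arrestin as split beta-galactosidase partners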
[20] = target: 5-hydroxytryptamine receptor 5A (Homo sapiens, UniProt P47898); assay: Counterscreen for agonists of OPRM1-OPRD1 heterodimerization: luminescence-based cell-based high throughput dose response assay to identify agonists of 5-hydroxytryptamine (serotonin) 5A receptor (HTR5A). [Related pubchem assays (depositor defined):AID504326, AID504355, AID504692, AID504904, AID504905]; type: functional
CAAX prenyl protease 2 [21] = target: CAAX prenyl protease 2 (Homo sapiens, UniProt Q9Y256); assay: human Rce1 protease inhibitors, dose response, biochemical, yeast membranes, quenched-peptide fluorescence, cherry-pick (AID 588849)
[22] = target: Dual specificity protein phosphatase 3 (Homo sapiens, UniProt P51452); assay: SAR VHR1 Fluorescent Assay for In Vitro dose response studies Set 3. [Related pubchem assays (depositor defined):AID1654, AID1661, AID1878]; type: functional
Cysteine protease ATG4B = Cysteine protease ATG4B (Homo sapiens, UniProt Q9Y4P1); type: functional;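 note: Fluorescence-based dose-response confirmation assay measuring inhibition of ATG4B activity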
Phospholipase A2 = Phospholipase A2 (Homo sapiens, UniProt P04054); type: functional;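 note: confirmatory dose-response counterscreen on phospholipase A2, testing hits that came from an ultra-high-throughput screen for ATG4B inhibitors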
[23] = Luminescence Cell-Based Dose Retest to Confirm Inhibitors of Cancer Stem Cells. [Related pubchem assays (depositor defined):AID2717, AID2721]; type: functional; details: Homo sapiens
[24] = cytotoxicity in HMLE control line with eGFP shRNA, dose response, counter-screen for HMLE_sh_ECad selective toxicity project, cell-based, HMLE_sh_eGFP, luminescence (AID 463074); type: functional, Homo sapiens;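 note: HMLE human mammary epithelial cells expressing control shRNA against eGFP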

Dual specificity protein phosphatase 3, sequence (P51452 whole entry): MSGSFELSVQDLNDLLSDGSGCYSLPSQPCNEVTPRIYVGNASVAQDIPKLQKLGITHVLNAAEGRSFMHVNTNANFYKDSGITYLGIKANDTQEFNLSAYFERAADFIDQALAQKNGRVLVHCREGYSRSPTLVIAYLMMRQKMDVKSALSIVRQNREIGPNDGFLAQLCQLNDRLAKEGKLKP
Genome polyprotein, sequence (P29990 2492-3391 limits assumed): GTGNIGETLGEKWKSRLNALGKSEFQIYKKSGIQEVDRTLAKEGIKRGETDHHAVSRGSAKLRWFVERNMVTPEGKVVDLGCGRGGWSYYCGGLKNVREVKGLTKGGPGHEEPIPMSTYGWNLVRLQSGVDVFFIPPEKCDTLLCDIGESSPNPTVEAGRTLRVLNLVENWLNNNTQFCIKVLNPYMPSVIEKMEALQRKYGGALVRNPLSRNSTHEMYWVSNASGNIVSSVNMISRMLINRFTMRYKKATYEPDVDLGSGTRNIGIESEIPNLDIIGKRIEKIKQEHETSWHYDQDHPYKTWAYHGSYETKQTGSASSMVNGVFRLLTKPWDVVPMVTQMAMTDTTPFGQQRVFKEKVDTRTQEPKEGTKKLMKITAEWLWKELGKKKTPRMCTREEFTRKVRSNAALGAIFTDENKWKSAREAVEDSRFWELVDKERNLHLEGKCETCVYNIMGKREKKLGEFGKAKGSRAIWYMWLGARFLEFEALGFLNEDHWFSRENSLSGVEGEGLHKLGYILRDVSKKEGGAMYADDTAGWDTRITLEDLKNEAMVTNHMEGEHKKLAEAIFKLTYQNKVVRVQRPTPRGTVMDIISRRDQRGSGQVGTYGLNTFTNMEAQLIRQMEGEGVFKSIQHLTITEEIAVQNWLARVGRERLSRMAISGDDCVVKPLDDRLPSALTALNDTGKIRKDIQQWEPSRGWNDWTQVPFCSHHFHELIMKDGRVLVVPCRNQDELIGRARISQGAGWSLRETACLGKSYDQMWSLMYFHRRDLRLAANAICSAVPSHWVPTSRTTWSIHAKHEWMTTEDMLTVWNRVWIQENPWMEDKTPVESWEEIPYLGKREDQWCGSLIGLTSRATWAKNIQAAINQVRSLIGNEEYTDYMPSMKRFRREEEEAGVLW
Mu-type opioid receptor, sequence (P35372 whole entry): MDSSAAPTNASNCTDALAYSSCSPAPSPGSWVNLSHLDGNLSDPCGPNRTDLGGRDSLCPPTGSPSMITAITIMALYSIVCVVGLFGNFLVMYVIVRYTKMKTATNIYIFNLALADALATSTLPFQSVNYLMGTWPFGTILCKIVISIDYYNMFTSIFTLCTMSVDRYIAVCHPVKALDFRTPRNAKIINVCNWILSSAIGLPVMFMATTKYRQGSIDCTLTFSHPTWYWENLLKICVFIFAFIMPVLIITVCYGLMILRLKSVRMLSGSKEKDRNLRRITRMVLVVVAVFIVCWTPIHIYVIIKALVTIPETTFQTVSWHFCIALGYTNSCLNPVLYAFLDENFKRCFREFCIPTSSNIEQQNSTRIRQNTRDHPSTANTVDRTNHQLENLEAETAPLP
Envelope glycoprotein gp160, sequence (Q6QLK5 whole entry, the tested form may be a part): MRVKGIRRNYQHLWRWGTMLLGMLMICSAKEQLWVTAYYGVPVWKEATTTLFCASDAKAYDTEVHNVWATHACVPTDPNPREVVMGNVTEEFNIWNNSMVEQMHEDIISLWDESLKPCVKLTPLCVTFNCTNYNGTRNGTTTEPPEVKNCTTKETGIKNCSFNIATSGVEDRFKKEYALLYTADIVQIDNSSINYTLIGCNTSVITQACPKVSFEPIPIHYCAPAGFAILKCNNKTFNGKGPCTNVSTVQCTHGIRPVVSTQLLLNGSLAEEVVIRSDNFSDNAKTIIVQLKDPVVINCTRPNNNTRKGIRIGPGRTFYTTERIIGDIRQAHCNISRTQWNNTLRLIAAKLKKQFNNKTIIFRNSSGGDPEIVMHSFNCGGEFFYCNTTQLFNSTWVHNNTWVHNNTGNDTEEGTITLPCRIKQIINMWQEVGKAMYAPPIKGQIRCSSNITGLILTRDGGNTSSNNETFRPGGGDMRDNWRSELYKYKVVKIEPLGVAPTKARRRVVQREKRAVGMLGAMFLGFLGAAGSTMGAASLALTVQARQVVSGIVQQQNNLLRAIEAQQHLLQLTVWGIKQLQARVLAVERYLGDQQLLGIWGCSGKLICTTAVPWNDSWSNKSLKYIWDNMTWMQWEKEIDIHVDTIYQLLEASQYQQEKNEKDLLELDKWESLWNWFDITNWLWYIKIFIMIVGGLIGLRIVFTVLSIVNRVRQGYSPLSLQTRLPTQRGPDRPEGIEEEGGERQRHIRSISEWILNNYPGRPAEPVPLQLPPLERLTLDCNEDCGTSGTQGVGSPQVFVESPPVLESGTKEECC
CAAX prenyl protease 2 (Homo sapiens, UniProt Q9Y256), sequence (Q9Y256 whole entry): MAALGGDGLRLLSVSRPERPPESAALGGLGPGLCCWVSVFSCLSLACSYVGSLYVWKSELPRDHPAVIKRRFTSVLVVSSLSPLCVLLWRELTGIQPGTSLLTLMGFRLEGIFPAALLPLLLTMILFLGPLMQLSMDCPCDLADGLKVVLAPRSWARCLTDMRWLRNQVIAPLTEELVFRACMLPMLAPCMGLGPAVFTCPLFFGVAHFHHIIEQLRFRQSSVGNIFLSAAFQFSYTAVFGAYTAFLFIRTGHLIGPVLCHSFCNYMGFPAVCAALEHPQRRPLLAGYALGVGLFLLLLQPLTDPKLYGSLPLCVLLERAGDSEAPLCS
Keap1/Nrf2, sequence (Q16236 whole entry): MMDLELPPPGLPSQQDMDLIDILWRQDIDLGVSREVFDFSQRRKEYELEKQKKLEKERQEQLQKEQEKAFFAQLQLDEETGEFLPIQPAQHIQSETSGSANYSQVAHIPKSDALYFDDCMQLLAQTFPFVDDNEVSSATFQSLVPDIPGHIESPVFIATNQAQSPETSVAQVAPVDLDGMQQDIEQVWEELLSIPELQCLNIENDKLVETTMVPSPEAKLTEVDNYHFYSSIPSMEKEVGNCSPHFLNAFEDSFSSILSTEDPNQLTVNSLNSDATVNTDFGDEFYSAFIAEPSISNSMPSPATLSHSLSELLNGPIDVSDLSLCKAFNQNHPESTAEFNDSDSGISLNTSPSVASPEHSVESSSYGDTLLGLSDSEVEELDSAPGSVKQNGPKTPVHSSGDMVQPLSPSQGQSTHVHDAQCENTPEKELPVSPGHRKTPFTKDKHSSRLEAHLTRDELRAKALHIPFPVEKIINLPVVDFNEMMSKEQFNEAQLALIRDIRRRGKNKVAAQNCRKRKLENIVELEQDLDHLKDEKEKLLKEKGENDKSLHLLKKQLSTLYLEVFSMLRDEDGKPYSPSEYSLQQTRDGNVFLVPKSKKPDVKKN
Keap1/Nrf2, sequence (Q14145 whole entry): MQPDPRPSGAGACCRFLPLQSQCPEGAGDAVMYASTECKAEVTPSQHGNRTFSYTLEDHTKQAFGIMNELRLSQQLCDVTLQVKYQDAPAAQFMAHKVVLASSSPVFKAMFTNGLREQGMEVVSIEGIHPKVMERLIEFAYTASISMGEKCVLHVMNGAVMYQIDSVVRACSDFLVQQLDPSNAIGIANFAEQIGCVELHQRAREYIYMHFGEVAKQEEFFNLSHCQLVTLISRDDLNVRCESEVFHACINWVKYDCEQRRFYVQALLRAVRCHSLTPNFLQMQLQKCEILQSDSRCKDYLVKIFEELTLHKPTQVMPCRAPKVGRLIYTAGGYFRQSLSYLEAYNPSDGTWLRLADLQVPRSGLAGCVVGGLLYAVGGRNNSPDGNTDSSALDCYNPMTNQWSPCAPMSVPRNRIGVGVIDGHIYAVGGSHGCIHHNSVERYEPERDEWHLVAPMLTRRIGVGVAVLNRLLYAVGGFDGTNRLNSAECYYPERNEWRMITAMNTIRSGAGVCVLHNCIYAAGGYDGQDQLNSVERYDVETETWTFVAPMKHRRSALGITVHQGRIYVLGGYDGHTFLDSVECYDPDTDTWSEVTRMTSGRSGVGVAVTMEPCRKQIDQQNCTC
Phospholipase A2, sequence (P04054 whole entry): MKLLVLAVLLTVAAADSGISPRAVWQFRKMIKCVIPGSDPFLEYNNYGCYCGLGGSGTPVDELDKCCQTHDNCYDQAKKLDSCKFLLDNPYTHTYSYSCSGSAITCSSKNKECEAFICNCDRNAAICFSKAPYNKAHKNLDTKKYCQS
5-hydroxytryptamine receptor 5A, sequence (P47898 whole entry): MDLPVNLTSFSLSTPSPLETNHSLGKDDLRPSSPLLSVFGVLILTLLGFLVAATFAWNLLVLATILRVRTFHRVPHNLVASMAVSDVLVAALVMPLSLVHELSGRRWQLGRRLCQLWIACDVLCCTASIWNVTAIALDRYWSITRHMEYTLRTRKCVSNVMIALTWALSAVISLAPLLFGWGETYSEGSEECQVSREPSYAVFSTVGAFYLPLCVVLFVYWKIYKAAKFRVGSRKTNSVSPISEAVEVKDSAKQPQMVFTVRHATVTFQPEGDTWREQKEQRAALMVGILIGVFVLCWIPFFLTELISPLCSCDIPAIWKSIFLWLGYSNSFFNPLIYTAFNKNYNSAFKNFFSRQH
Delta-type opioid receptor, sequence (P41143 whole entry): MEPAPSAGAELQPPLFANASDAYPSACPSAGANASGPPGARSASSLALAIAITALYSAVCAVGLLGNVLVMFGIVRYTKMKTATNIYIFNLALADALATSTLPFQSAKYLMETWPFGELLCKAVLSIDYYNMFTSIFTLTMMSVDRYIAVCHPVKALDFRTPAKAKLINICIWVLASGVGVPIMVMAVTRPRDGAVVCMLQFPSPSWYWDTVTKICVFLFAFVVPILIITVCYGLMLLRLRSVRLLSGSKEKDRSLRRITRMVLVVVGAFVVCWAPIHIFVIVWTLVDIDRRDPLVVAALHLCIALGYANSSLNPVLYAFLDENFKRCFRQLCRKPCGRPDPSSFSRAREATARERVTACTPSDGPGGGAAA

## Nc1ccc2c3c(cccc13)C(=O)N(c1ccccc1)C2=O
Beta-lactamase [1]
  IC50: 12.7 µM (inactive)
Beta-lactamase [2]
  IC50: 4.41 µM (active)
ORF 73
  AC50: 5.56 µM (active)
Keap1/Nrf2
  AC50: 1.4 µM (active)

## CCC(C)(C)c1ccc(OCCCC[n+]2ccc(C)cc2)c(C(C)(C)CC)c1
[3]
  EC50: > 160 µM (inactive)
[4]
  EC50: 0.344 µM (active)
[5]
  CC50: > 40 µM (active)
Bcl-2-related protein A1
  IC50: > 20 µM (inactive)
Jurkat
  IC50: 4.32 µM (active)
[6]
  IC50: 12.6 µM (active)
[7]
  IC50: 62.2 µM (inactive)
[8]
  IC50: > 20 µM (inactive)
INS1
  AC50: 1.26 µM (active)

## c1ccc(P(c2ccccc2)c2ccccc2)cc1
[9]
  AC50: 14.1 µM (inconclusive)

## CCc1ccc(/C=C2/SC(=S)N(CCCC(=O)Nc3ccccc3C(=O)O)C2=O)cc1
[10]
  IC50: > 99 µM (inactive)
[3]
  EC50: 14 µM (inconclusive)
[4]
  EC50: 4.17 µM (active)
[11]
  EC50: 4.22 µM (active)
Vero
  CC50: > 40 µM (active)
Genome polyprotein
  IC50: 31.4 µM (active)

## O=C(Nc1cccc(C(F)(F)F)c1)c1cccc(NC(=O)c2ccc3nccnc3c2)c1
Hexokinase-1
  IC50: > 80 µM (inactive)
Hexokinase HKDC1
  IC50: > 80 µM (inactive)

## O=C(c1ccc(Cl)cc1)N1CCN(c2ncccn2)CC1
Candida albicans [12]
  AC50: 2.91 µM (active)
Candida albicans [13]
  AC50: 3.81 µM (active)
Candida albicans [14]
  AC50: 17.6 µM (active)
Candida albicans [15]
  AC50: 0.57 µM (active)

## CCN(Cc1ccccc1)S(=O)(=O)c1ccc(C(=O)N(CCCN(C)C)c2nc3c(C)c(C)ccc3s2)cc1
[16]
  EC50: 0.373 µM (active)
[17]
  EC50: 5.55 µM (active)
CAAX prenyl protease 2 [18]
  AC50: 11.6 µM (active)
[19]
  EC50: 78.9 µM (inactive)
Mu-type opioid receptor
  EC50: 56.3 µM (inactive)
[20]
  EC50: > 92.4 µM (inactive)
CAAX prenyl protease 2 [21]
  AC50: 18.9 µM (active)

## COc1cccc2sc(Nc3nnc(-c4ccccc4)o3)nc12
[22]
  IC50: 12 µM (active)

## Cc1ccc(C(=O)NC(=S)Nc2ccccc2C(F)(F)F)cc1C
Cysteine protease ATG4B
  IC50: 14.6 µM (active)
Phospholipase A2
  IC50: 6.91 µM (active)

## Oc1ccccc1C1CC(c2cccs2)=NC(c2cccc(Br)c2)N1 (stereo not drawn)
[23]
  AC50: 21.1 µM (active)
[24]
  AC50: 23.9 µM (active)
